Measurements taken from the supplement of paper PMC8149375.

Columns and labels:
Details in all cases: treatment: drug + dasatinib (fixed dose, not stated); 5 days
769-P [1] = assay: GI50 of drug in presence of dasatinib; higher = less potent
Description: (§1)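 Primary HTS combination arm: 8 RCC cell lines treated with 8 doses (up to 10 uM) of each library drug plus a fixed dose of dasatinib (dose not stated) for 5 days; viability read by CellTiter-Glo and normalised to DMSO. GI50 was fitted with XLfit, AUC is the area under the dose-response curve, and minimum viability is the lowest fraction of DMSO viability across doses.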

786-O [2] = assay: as above
Description: as §1

A498 [3] = assay: as above
Description: as §1

ACHN [4] = assay: as above
Description: as §1

CAKI-1 [5] = assay: as above
Description: as §1

SN12C [6] = assay: as above
Description: as §1

TK-10 [7] = assay: as above
Description: as §1

UO-31 [8] = assay: as above
Description: as §1

769-P [9] = assay: minimum viability across doses, drug + dasatinib, relative to DMSO (fraction); higher = less growth inhibition
Description: as §1

786-O [10] = assay: as above
Description: as §1

A498 [11] = assay: as above
Description: as §1

ACHN [12] = assay: as above
Description: as §1

CAKI-1 [13] = assay: as above
Description: as §1

SN12C [14] = assay: as above
Description: as §1

TK-10 [15] = assay: as above
Description: as §1

UO-31 [16] = assay: as above
Description: as §1

769-P [17] = assay: AUC of dose-response viability curve, drug + dasatinib, normalised to DMSO (arbitrary (AUC of normalised viability)); higher = less growth inhibition
Description: as §1

786-O [18] = assay: as above
Description: as §1

A498 [19] = assay: as above
Description: as §1

ACHN [20] = assay: as above
Description: as §1

CAKI-1 [21] = assay: as above
Description: as §1

SN12C [22] = assay: as above
Description: as §1

TK-10 [23] = assay: as above
Description: as §1

UO-31 [24] = assay: as above
Description: as §1

Row | Structure (SMILES) | GI50 of drug (769-P [1]) [nM] | GI50 of drug (786-O [2]) [nM] | GI50 of drug (A498 [3]) [nM] | GI50 of drug (ACHN [4]) [nM] | GI50 of drug (CAKI-1 [5]) [nM] | GI50 of drug (SN12C [6]) [nM] | GI50 of drug (TK-10 [7]) [nM] | GI50 of drug (UO-31 [8]) [nM] | minimum viability across doses (769-P [9]) | minimum viability across doses (786-O [10]) | minimum viability across doses (A498 [11]) | minimum viability across doses (ACHN [12]) | minimum viability across doses (CAKI-1 [13]) | minimum viability across doses (SN12C [14]) | minimum viability across doses (TK-10 [15]) | minimum viability across doses (UO-31 [16]) | AUC of dose-response viability curve (769-P [17]) | AUC of dose-response viability curve (786-O [18]) | AUC of dose-response viability curve (A498 [19]) | AUC of dose-response viability curve (ACHN [20]) | AUC of dose-response viability curve (CAKI-1 [21]) | AUC of dose-response viability curve (SN12C [22]) | AUC of dose-response viability curve (TK-10 [23]) | AUC of dose-response viability curve (UO-31 [24])
1 | N#C/C(=C\c1ccc(O)c(O)c1)C(=O)NCc1ccccc1 [AG-490] + Cc1nc(Nc2ncc(C(=O)Nc3c(C)cccc3Cl)s2)cc(N2CCN(CCO)CC2)n1 [dasatinib] | 8560 | 2470 | > 10000 | 2330 | > 10000 | > 10000 | > 10000 | > 10000 | 0.488 | 0.355 | 0.887 | 0.179 | 0.667 | 0.681 | 0.544 | 0.8 | 2.42 | 2.36 | 3.3 | 1.98 | 2.43 | 2.49 | 2.62 | 3.44
2 | O=c1cc(-c2cccc3c2Sc2ccccc2S3)oc(N2CCOCC2)c1 + Cc1nc(Nc2ncc(C(=O)Nc3c(C)cccc3Cl)s2)cc(N2CCN(CCO)CC2)n1 [dasatinib] | > 10000 | > 10000 | > 10000 | 20 | 4310 | > 10000 | > 10000 | > 10000 | 0.635 | 0.561 | 0.747 | 0.449 | 0.31 | 0.659 | 0.682 | 0.7 | 2.38 | 2.43 | 3.16 | 1.86 | 2.12 | 2.48 | 2.57 | 3.22
3 | Nc1nc(Nc2ccc(S(N)(=O)=O)cc2)nn1C(=O)c1c(F)cccc1F + Cc1nc(Nc2ncc(C(=O)Nc3c(C)cccc3Cl)s2)cc(N2CCN(CCO)CC2)n1 [dasatinib] | 3160 | 343 | 4680 | 334 | 1250 | 3690 | > 10000 | 4120 | 0.0371 | 0.00366 | 0.269 | 0.00508 | 0.0394 | 0.142 | 0.623 | 0.00972 | 2.24 | 1.7 | 2.82 | 1.56 | 1.99 | 2.48 | 2.57 | 3.26
4 | COc1cc2ncnc(Nc3cccc(Br)c3)c2cc1OC.Cl + Cc1nc(Nc2ncc(C(=O)Nc3c(C)cccc3Cl)s2)cc(N2CCN(CCO)CC2)n1 [dasatinib] | 111 | 2860 | > 10000 | 5.77 | 2490 | > 10000 | 884 | 8520 | 0.157 | 0.0127 | 0.835 | 0.181 | 0.237 | 0.547 | 0.124 | 0.0122 | 1.69 | 2.14 | 3.5 | 1.18 | 2.22 | 2.32 | 2.19 | 2.94
5 | C#Cc1cccc(Nc2ncnc3cc(OCCOC)c(OCCOC)cc23)c1.Cl [Erlotinib HCl] + Cc1nc(Nc2ncc(C(=O)Nc3c(C)cccc3Cl)s2)cc(N2CCN(CCO)CC2)n1 [dasatinib] | 440 | 8920 | > 10000 | 206 | 1060 | > 10000 | 2440 | 5540 | 0.234 | 0.469 | 0.718 | 0.114 | 0.125 | 0.589 | 0.37 | 0.249 | 1.94 | 2.65 | 3.48 | 1.73 | 1.97 | 2.54 | 2.4 | 3.03
6 | CN(C)CC[C@H](CSc1ccccc1)Nc1ccc(S(=O)(=O)NC(=O)c2ccc(N3CCN(Cc4ccccc4-c4ccc(Cl)cc4)CC3)cc2)cc1[N+](=O)[O-] [ABT-737] + Cc1nc(Nc2ncc(C(=O)Nc3c(C)cccc3Cl)s2)cc(N2CCN(CCO)CC2)n1 [dasatinib] | 2140 | 469 | 5920 | 2560 | > 10000 | > 10000 | 3300 | 3310 | 0.0505 | 0.00111 | 0.171 | 0.23 | 0.65 | 0.515 | 0.144 | 0.00776 | 2.31 | 1.74 | 3.1 | 1.9 | 2.41 | 2.58 | 2.24 | 3.71
7 | Nc1nc(NCCNc2ncc(-n3ccnc3)c(-c3ccc(Cl)cc3Cl)n2)ccc1[N+](=O)[O-] + Cc1nc(Nc2ncc(C(=O)Nc3c(C)cccc3Cl)s2)cc(N2CCN(CCO)CC2)n1 [dasatinib] | 1540 | 552 | 9900 | 1830 | 1230 | 7550 | 1590 | 1600 | 0.0308 | 0.00601 | 0.474 | 0.0281 | 0.0567 | 0.268 | 0.0534 | 0.0119 | 2.13 | 1.93 | 3.68 | 1.88 | 2 | 2.28 | 2.25 | 3.5
8 | Cc1c(CN2CCN(C(=O)[C@H](C)O)CC2)sc2c(N3CCOCC3)nc(-c3cnc(N)nc3)nc12 [GDC-0980 (RG7422)] + Cc1nc(Nc2ncc(C(=O)Nc3c(C)cccc3Cl)s2)cc(N2CCN(CCO)CC2)n1 [dasatinib] | 80.4 | 81.1 | 658 | 25.5 | 102 | 119 | 103 | 268 | 0.0451 | 0.00396 | 0.17 | 0.0521 | 0.02 | 0.0934 | 0.0374 | 0.00909 | 1.44 | 1.47 | 2.4 | 1.12 | 1.36 | 1.45 | 1.47 | 2.18
9 | COC(=O)Nc1ccc(-c2nc(N3CCOCC3)c3cnn(C4CCN(Cc5cccnc5)CC4)c3n2)cc1 [WYE-687] + Cc1nc(Nc2ncc(C(=O)Nc3c(C)cccc3Cl)s2)cc(N2CCN(CCO)CC2)n1 [dasatinib] | 481 | 618 | 2280 | 83.3 | 153 | 414 | 231 | 572 | 0.074 | 0.212 | 0.251 | 0.0388 | 0.0365 | 0.13 | 0.058 | 0.00676 | 1.81 | 2.02 | 2.89 | 1.38 | 1.51 | 1.78 | 1.79 | 2.8
10 | COc1cc(Nc2ncc(F)c(Nc3ccc4c(n3)N(COP(=O)(O)O)C(=O)C(C)(C)O4)n2)cc(OC)c1OC [R788 (Fostamatinib)] + Cc1nc(Nc2ncc(C(=O)Nc3c(C)cccc3Cl)s2)cc(N2CCN(CCO)CC2)n1 [dasatinib] | 993 | 366 | > 10000 | 183 | 195 | 983 | 963 | 2400 | 0.0614 | 0.199 | 0.61 | 0.04 | 0.00427 | 0.179 | 0.254 | 0.0153 | 2 | 1.88 | 3.69 | 1.45 | 1.47 | 2.02 | 2.16 | 3.58
11 | CC(=O)NCC(=O)N1[C@H]2CC[C@H]1c1cc(Nc3ncc(C(F)(F)F)c(NC4CCC4)n3)ccc12 + Cc1nc(Nc2ncc(C(=O)Nc3c(C)cccc3Cl)s2)cc(N2CCN(CCO)CC2)n1 [dasatinib] | 118 | 18.1 | 625 | 24.1 | 30.6 | 128 | 429 | 711 | 0.028 | 0.0101 | 0.0199 | 0.0109 | 0.0773 | 0.0154 | 0.116 | 0.0156 | 1.61 | 0.86 | 2.34 | 1.17 | 1.11 | 1.47 | 1.83 | 2.3
12 | Cc1cc(Nc2cc(N3CCN(C)CC3)nc(Sc3ccc(NC(=O)C4CC4)cc3)n2)n[nH]1 [VX-680 (MK-0457, Tozasertib)] + Cc1nc(Nc2ncc(C(=O)Nc3c(C)cccc3Cl)s2)cc(N2CCN(CCO)CC2)n1 [dasatinib] | 325 | 152 | 1110 | 145 | 95.1 | 511 | > 10000 | 3330 | 0.269 | 0.308 | 0.183 | 0.139 | 0.077 | 0.0667 | 0.536 | 0.0311 | 1.79 | 1.88 | 2.4 | 1.68 | 1.6 | 1.97 | 2.73 | 2.75
13 | CCn1cc(-c2ccnc3[nH]c(-c4cccc(CN(C)C)c4)cc23)c(-c2ccc(NC(=O)N(C)C)cc2)n1 + Cc1nc(Nc2ncc(C(=O)Nc3c(C)cccc3Cl)s2)cc(N2CCN(CCO)CC2)n1 [dasatinib] | 785 | 28.4 | 2170 | 73.7 | 96.9 | 128 | 635 | 2870 | 0.0742 | 0.0106 | 0.131 | 0.00393 | 0.0134 | 0.00824 | 0.0524 | 0.0175 | 2.05 | 1.39 | 2.97 | 1.33 | 1.42 | 1.61 | 2.03 | 3.82
14 | COc1cc2nccc(Oc3ccc(NC(=O)NC4CC4)c(Cl)c3)c2cc1C(N)=O [E7080 (Lenvatinib)] + Cc1nc(Nc2ncc(C(=O)Nc3c(C)cccc3Cl)s2)cc(N2CCN(CCO)CC2)n1 [dasatinib] | 4520 | > 10000 | > 10000 | 1260 | 431 | > 10000 | > 10000 | 7260 | 0.321 | 0.674 | 0.795 | 0.247 | 0.0901 | 0.312 | 0.682 | 0.338 | 2.26 | 2.62 | 3.47 | 1.96 | 1.81 | 2.22 | 2.65 | 1.8
